This passage reports EC50 results from patent publication US9604964B2, “Dihydropyrazole GPR40 modulators” (BRISTOL-MYERS SQUIBB COMPANY, priority 2012, dated 2017).

The target in the assay is human GPR40 (Homo sapiens, UniProt O14842). The assay can be described thus: FDSS-based intracellular calcium assay (Human GPR40 in vitro assay). Type of assay: cell-based. Set-up: 3xFLAG; expressed in transfected cells. The following applies: intracellular Ca2+ response, cells expressing GPR40; read-out: hGPR40 EC50. Here is the method: FDSS-based Intracellular Calcium Assay
Sequence of human GPR40 (O14842 whole entry): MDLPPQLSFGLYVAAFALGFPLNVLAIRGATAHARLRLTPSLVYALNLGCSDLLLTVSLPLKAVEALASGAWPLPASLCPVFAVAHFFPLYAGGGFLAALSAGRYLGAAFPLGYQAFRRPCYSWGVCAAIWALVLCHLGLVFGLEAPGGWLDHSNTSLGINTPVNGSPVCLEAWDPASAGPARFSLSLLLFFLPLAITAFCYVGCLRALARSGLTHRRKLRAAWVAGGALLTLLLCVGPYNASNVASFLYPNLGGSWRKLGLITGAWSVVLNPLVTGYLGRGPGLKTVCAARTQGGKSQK
Compounds are dissolved in DMSO and diluted to desired concentrations with assay buffer and added to the cells as 3× solution (20 μL per well). Run fluorescence/luminescence reader FDSS (Hamamatsu) to read intracellular Ca^2+ response.
Background: Calcium flux is commonly read through the fluorescence of an indicator in the cells.

Usually EC50 stands for the concentration giving half of the maximal effect. Consider `COc1cncc(N2CCC(Oc3ccc(N4N=C(C(F)(F)F)[C@@H](C)[C@@H]4CC(=O)O)cc3)CC2)n1` [Example 53, 2-((4S,5S)-1-(4-((1-(6-methoxypyrazin-2-yl)piperidin-4-yl)oxy)phenyl)-4-methyl-3-(trifluoromethyl)-4,5-dihydro-1H-pyrazol-5-yl)acetic acid], for which the EC50 worked out at 4200 nM.
Then `C[C@@H]1C(C(F)(F)F)=NN(c2ccc(OC3CCN(c4cnc(Cl)cn4)CC3)cc2)[C@H]1CC(=O)O` [Example 55, 2-((4S,5S)-1-(4-((1-(5-chloropyrazin-2-yl)piperidin-4-yl)oxy)phenyl)-4-methyl-3-(trifluoromethyl)-4,5-dihydro-1H-pyrazol-5-yl)acetic acid], with 6250 nM; and `COc1ccc(F)c(N2C(=O)[C@H]3C[C@@H]2CC3Oc2ccc(N3N=C(C(F)(F)F)[C@@H](C)[C@@H]3CC(=O)O)cc2)c1` (stereo partly drawn) [Example 67, 2-((4S,5S)-1-(4-(((1R,4S)-2-(2-fluoro-5-methoxyphenyl)-3-oxo-2-azabicyclo[2.2.1]heptan-5-yl)oxy)phenyl)-4-methyl-3-(trifluoromethyl)-4,5-dihydro-1H-pyrazol-5-yl)acetic acid], with 6410 nM.
Then `COc1ccc(F)c(N2C(=O)[C@@H]3C[C@H]2CC3Oc2ccc(N3N=C(C(F)(F)F)[C@@H](C)[C@@H]3CC(=O)O)cc2)c1` (stereo partly drawn) [Example 68, 2-((4S,5S)-1-(4-(((1S,4R)-2-(2-fluoro-5-methoxyphenyl)-3-oxo-2-azabicyclo[2.2.1]heptan-5-yl)oxy)phenyl)-4-methyl-3-(trifluoromethyl)-4,5-dihydro-1H-pyrazol-5-yl)acetic acid], with 5040 nM; and `COc1ccc(F)c(N2C[C@H]3C[C@@H]2CC3Oc2ccc(N3N=C(C(F)(F)F)[C@@H](C)[C@@H]3CC(=O)O)cc2)c1` (stereo partly drawn) [Example 69, 2-((4S,5S)-1-(4-(((1R,4R)-2-(2-fluoro-5-methoxyphenyl)-2-azabicyclo[2.2.1]heptan-5-yl)oxy)phenyl)-4-methyl-3-(trifluoromethyl)-4,5-dihydro-1H-pyrazol-5-yl)acetic acid], with 847 nM; and `COc1ccc(F)c(N2C[C@@H]3C[C@H]2CC3Oc2ccc(N3N=C(C(F)(F)F)[C@@H](C)[C@@H]3CC(=O)O)cc2)c1` (stereo partly drawn) [Example 70, 2-((4S,5S)-1-(4-(((1S,4S)-2-(2-fluoro-5-methoxyphenyl)-2-azabicyclo[2.2.1]heptan-5-yl)oxy)phenyl)-4-methyl-3-(trifluoromethyl)-4,5-dihydro-1H-pyrazol-5-yl)acetic acid], with 1000 nM.
As for `CCOc1ccc(F)c(N2CCC(Oc3ccc(N4N=C(c5ccc(C#N)c(C#N)c5)[C@@H](C)[C@@H]4CC(=O)O)cc3)CC2)c1` [Example 96, 2-((4S,5S)-3-(3,4-dicyanophenyl)-1-(4-((1-(5-ethoxy-2-fluorophenyl)piperidin-4-yl)oxy)phenyl)-4-methyl-4,5-dihydro-1H-pyrazol-5-yl)acetic acid], the EC50 is 1570 nM.
With `CCOc1cc(F)c(F)c(N2CCC(Oc3ccc(N4N=C(c5ccc(F)c(F)c5)[C@@H](C)[C@@H]4CC(=O)O)cc3)CC2)c1` [Example 97, 2-((4S,5S)-3-(3,4-difluorophenyl)-1-(4-((1-(5-ethoxy-2,3-difluorophenyl)piperidin-4-yl)oxy)phenyl)-4-methyl-4,5-dihydro-1H-pyrazol-5-yl)acetic acid], the EC50 was found to be 3140 nM.
Consider `COc1ccc(F)c(N2CCC(Cc3ccc(N4N=C(C(F)(F)F)[C@@H](C)[C@@H]4CC(=O)O)cc3)CC2)c1` [Example 100, 2-((4S,5S)-1-(4-((1-(2-fluoro-5-methoxyphenyl)piperidin-4-yl)methyl)phenyl)-4-methyl-3-(trifluoromethyl)-4,5-dihydro-1H-pyrazol-5-yl)acetic acid], for which the 50% effective concentration (EC50) stood at 266 nM.
For the compound `COc1cc(N2CC[C@@H](Oc3ccc(N4N=C(C(F)(F)F)[C@@H](C)[C@@H]4CC(=O)O)cc3)[C@H](CO)C2)c(Cl)cn1` [Example B1, 2-((4S,5S)-1-(4-(((3S,4R)-1-(5-chloro-2-methoxypyridin-4-yl)-3-(hydroxymethyl)piperidin-4-yl)oxy)phenyl)-4-methyl-3-(trifluoromethyl)-4,5-dihydro-1H-pyrazol-5-yl)acetic acid], the EC50 was 2480 nM.
`CCOc1ccc(F)c(N2CCC(Oc3ccc(N4N=C(c5ccc(C(=O)O)cc5F)[C@@H](C)[C@@H]4CC(=O)O)cc3)CC2)c1` [Example B4, 4-((4S,5S)-5-(carboxymethyl)-1-(4-((1-(5-ethoxy-2-fluorophenyl)piperidin-4-yl)oxy)phenyl)-4-methyl-4,5-dihydro-1H-pyrazol-3-yl)-3-fluorobenzoic acid]: the EC50 turned out to be 4950 nM.
Consider `COc1cccc(N2CCC(Cc3ccc(N4N=C(C(F)(F)F)[C@@H](C)[C@@H]4CC(=O)O)cc3)CC2)c1` [Example B8, 2-((4S,5S)-1-(4-((1-(3-methoxyphenyl)piperidin-4-yl)methyl)phenyl)-4-methyl-3-(trifluoromethyl)-4,5-dihydro-1H-pyrazol-5-yl)acetic acid], for which the concentration for a half-maximal effect (EC50) amounted to 761 nM.
As for `COc1cc(N2CCC(Cc3ccc(N4N=C(C(F)(F)F)[C@@H](C)[C@@H]4CC(=O)O)cc3)CC2)ccn1` [Example B9, 2-((4S,5S)-1-(4-((1-(2-methoxypyridin-4-yl)piperidin-4-yl)methyl)phenyl)-4-methyl-3-(trifluoromethyl)-4,5-dihydro-1H-pyrazol-5-yl)acetic acid], the 50% effective concentration (EC50) amounted to 2660 nM.
Regarding `COc1cc(N2CCC(Cc3ccc(N4N=C(C(F)(F)F)[C@@H](C)[C@@H]4CC(=O)O)cc3)CC2)c(Cl)cn1` [Example B10, 2-((4S,5S)-1-(4-((1-(5-chloro-2-methoxypyridin-4-yl)piperidin-4-yl)methyl)phenyl)-4-methyl-3-(trifluoromethyl)-4,5-dihydro-1H-pyrazol-5-yl)acetic acid], the EC50 was 517 nM.
Regarding `C[C@@H]1C(C(F)(F)F)=NN(c2ccc(CC3C4CCC3CN(C(=O)OCc3ccccc3)C4)cc2)[C@H]1CC(=O)O` (stereo partly drawn) [Example B11, 2-((4S,5S)-1-(4-(((1R,5S,8S)-3-((benzyloxy)carbonyl)-3-azabicyclo[3.2.1]octan-8-yl)methyl)phenyl)-4-methyl-3-(trifluoromethyl)-4,5-dihydro-1H-pyrazol-5-yl)acetic acid], the EC50 was found to be 7380 nM.
For the compound `COc1cccc(N2CC3CCC(C2)C3Cc2ccc(N3N=C(C(F)(F)F)[C@@H](C)[C@@H]3CC(=O)O)cc2)c1` (stereo partly drawn) [Example B12, 2-((4S,5S)-1-(4-(((1R,5S,8S)-3-(3-methoxyphenyl)-3-azabicyclo[3.2.1]octan-8-yl)methyl)phenyl)-4-methyl-3-(trifluoromethyl)-4,5-dihydro-1H-pyrazol-5-yl)acetic acid], the EC50 came out at 5720 nM.
For `COc1cc(N2CC3CCC(C2)C3Cc2ccc(N3N=C(C(F)(F)F)[C@@H](C)[C@@H]3CC(=O)O)cc2)c(Cl)cn1` (stereo partly drawn) [Example B13, 2-((4S,5S)-1-(4-(((1R,5S,8S)-3-(5-chloro-2-methoxypyridin-4-yl)-3-azabicyclo[3.2.1]octan-8-yl)methyl)phenyl)-4-methyl-3-(trifluoromethyl)-4,5-dihydro-1H-pyrazol-5-yl)acetic acid], the EC50 was determined as 2200 nM.
Turning to `C[C@@H]1C(C(F)(F)F)=NN(c2ccc(OC3CCN(c4cc5c(cc4Cl)OCO5)CC3)cc2)[C@H]1CC(=O)O` [Example B14, 2-((4S,5S)-1-(4-((1-(6-Chlorobenzo[d] [1,3]dioxol-5-yl)piperidin-4-yl)oxy)phenyl)-4-methyl-3-(trifluoromethyl)-4,5-dihydro-1H-pyrazol-5-yl)acetic acid], the EC50 was 569 nM.
